According to US12157741B2, “Macrocyclic inhibitors of DYRK1A” (DANA-FARBER CANCER INSTITUTE, INC., priority 2018, dated 2024):
Read-outs that look alike come from different tables or passages of the source.

How the values were obtained:
[1] = molecular target: T1, various enzymes (Homo sapiens, UniProt O43283); conditions: LZK; 1 uM
T1 sequence (O43283 1-966): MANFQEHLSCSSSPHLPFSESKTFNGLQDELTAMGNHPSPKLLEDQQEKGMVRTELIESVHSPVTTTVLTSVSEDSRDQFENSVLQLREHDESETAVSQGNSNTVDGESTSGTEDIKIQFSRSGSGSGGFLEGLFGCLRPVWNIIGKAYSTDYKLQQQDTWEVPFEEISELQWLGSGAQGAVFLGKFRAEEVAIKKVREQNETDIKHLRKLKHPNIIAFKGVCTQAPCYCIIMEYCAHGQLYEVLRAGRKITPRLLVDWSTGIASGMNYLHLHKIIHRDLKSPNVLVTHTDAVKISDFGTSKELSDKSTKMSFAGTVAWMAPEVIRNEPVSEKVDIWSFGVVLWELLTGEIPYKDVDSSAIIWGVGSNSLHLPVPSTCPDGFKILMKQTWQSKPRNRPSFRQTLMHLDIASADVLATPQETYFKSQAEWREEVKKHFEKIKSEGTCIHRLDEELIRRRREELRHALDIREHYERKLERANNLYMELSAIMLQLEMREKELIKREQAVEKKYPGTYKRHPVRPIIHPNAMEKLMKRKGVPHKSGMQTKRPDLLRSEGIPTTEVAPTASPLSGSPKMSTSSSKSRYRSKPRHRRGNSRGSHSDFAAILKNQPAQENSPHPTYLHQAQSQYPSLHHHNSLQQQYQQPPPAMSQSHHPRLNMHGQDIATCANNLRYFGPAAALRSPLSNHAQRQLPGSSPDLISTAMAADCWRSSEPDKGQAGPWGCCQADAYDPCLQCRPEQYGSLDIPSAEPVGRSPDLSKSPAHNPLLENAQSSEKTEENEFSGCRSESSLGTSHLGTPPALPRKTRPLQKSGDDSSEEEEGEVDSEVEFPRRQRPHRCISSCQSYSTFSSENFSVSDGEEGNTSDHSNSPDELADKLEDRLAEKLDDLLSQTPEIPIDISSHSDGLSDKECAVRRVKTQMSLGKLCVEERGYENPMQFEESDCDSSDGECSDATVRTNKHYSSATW
Method: (§1) Ambit profiling from Eurofins (formerly Discoverx) was conducted in accordance with the manufacturer's instructions.

[2] = molecular target: T2, various enzymes (Homo sapiens, UniProt O60285); conditions: ARK5; 1 uM
T2 sequence (O60285 1-661): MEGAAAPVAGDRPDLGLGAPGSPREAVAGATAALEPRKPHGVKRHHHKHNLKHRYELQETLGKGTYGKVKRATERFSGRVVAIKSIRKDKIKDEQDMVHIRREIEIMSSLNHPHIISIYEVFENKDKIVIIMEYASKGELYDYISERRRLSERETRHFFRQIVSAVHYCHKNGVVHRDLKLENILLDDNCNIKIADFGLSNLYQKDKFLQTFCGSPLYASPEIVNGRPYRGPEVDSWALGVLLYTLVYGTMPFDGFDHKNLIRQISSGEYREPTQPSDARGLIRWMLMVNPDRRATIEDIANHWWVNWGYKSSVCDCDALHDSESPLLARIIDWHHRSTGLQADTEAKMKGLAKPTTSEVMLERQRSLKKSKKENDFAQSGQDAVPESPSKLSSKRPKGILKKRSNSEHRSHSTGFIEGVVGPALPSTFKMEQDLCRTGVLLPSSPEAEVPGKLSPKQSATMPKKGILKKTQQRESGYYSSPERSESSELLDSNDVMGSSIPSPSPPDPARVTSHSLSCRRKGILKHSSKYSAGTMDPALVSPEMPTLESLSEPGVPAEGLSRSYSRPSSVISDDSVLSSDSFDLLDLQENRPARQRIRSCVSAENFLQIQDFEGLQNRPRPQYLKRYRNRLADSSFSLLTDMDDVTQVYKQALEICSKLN
Method: as §1

[3] = molecular target: various enzymes (Homo sapiens, UniProt P00533, T790M)
Method: as §1

[4] = molecular target: various enzymes (Homo sapiens, UniProt P43405); conditions: SYK; 1 uM
Method: as §1

[5] = molecular target: various enzymes (Homo sapiens, UniProt P45983); conditions: JNK1; 1 uM
Method: as §1

[6] = molecular target: T3, various enzymes (Homo sapiens, UniProt Q9H093); conditions: SNARK; 1 uM
T3 sequence (Q9H093 1-628): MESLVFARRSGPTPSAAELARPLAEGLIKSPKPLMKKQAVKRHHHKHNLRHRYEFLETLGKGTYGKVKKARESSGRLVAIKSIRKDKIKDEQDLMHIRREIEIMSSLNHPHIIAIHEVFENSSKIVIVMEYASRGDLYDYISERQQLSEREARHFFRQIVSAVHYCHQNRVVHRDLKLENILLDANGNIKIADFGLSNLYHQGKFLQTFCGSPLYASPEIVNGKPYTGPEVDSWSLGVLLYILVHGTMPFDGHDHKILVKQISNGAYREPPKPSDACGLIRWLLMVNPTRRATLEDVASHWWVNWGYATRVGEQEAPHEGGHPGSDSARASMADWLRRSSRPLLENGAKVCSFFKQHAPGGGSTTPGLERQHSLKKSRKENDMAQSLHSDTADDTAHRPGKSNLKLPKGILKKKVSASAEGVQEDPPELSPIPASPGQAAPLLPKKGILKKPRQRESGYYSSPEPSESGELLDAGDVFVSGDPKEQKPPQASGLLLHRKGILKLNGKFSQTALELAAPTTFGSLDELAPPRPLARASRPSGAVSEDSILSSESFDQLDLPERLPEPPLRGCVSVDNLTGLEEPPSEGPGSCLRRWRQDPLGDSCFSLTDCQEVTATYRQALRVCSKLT
Method: as §1

[7] = molecular target: T4, various enzymes (Homo sapiens, UniProt Q9NWZ3); conditions: IRAK4; 1 uM
T4 sequence (Q9NWZ3 1-460): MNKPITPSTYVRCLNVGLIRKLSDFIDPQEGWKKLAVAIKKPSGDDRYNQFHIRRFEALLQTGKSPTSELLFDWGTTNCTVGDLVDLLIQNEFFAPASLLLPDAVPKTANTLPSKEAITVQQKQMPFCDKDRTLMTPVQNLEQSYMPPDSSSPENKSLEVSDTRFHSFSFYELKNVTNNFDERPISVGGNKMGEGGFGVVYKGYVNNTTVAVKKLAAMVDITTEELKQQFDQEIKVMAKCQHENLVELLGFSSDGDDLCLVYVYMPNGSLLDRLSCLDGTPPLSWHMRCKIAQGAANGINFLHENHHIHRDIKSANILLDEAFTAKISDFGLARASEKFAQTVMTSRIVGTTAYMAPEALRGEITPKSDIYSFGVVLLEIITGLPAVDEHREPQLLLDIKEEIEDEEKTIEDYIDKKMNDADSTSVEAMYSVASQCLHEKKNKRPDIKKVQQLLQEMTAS
Method: as §1

Chain of various enzymes (Homo sapiens, UniProt P45983) (P45983 whole entry): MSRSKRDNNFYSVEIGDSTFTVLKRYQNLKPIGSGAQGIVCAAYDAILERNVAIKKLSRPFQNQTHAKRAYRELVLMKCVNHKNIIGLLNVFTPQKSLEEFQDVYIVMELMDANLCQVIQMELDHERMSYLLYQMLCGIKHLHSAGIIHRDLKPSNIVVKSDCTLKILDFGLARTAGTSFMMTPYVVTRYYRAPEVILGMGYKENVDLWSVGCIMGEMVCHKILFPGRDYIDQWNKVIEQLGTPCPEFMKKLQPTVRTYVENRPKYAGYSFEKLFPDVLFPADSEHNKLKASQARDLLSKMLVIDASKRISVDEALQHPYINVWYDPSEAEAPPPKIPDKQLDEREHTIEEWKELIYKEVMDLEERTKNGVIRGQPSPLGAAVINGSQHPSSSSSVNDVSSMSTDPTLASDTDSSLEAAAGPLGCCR

| SMILES | Ambit profiling [1] | Ambit profiling [2] | Ambit profiling ([3]; EGFR(T790M), 1 uM) | Ambit profiling [4] | Ambit profiling [5] | Ambit profiling [6] | Ambit profiling [7] | Ambit profiling [3] |
| --- | --- | --- | --- | --- | --- | --- | --- | --- |
| CN1Cc2nn(C)cc2-c2cnc3[nH]cc(c3c2)-c2cnn(c2)CCCC1=O [Compound 41, (Z)-31,5-dimethyl-11H,21H,31H-5-aza-2(3,5)-pyrrolo[2,3-b]pyridina-1(4,1),3(4,3)-dipyrazolacyclononaphan-6-one] | 11 | 8.9 | 41 | 70 | 0.1 | 4.3 | 12 | – |
| CN1Cc2nn(C)c(C#N)c2-c2cnc3[nH]cc(c3c2)-c2cn(nc2C(F)(F)F)CCCC1=O [Compound 48, (Z)-31,5-dimethyl-6-oxo-13-(trifluoromethyl)-11H,21H,31H-5-aza-2(3,5)-pyrrolo[2,3-b]pyridina-1(4,1),3(4,3)-dipyrazolacyclononaphane-35-carbonitrile] | 100 | 100 | – | 68 | 20 | 100 | 100 | 80 |
